Reference: ChEMBL document CHEMBL1201862, “PubChem BioAssay data set” (2004)
The source made the active and inactive calls.

Columns and labels:
[1] = LGR2 antagonists, dose response, cell-based, HEK293, CRE-luciferase reporter, cherry pick (AID 743342); type: functional
[2] = A549 cell cytotoxicity, dose response, cytotoxicity control, plate reader, cherry-pick, antagonist series (AID 743412); type: functional, cell-based
[3] = test system: HEK293; assay: HEK cell cytotoxicity by LDH release, dose response, cytotoxicity control for IDE activator project, fluorescence, HEK cells (AID 588440); type: functional, cell-based; conditions: Homo sapiens;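 also: cytotoxicity by LDH release measuring loss of membrane integrity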
[4] = target: T1, Insulin-degrading enzyme (Homo sapiens, UniProt P14735); assay: activators of endogenous IDE in HEK cells, dose response, cell-based, fluorescence polarization (AID 588439); type: functional
T1 sequence (P14735 whole entry): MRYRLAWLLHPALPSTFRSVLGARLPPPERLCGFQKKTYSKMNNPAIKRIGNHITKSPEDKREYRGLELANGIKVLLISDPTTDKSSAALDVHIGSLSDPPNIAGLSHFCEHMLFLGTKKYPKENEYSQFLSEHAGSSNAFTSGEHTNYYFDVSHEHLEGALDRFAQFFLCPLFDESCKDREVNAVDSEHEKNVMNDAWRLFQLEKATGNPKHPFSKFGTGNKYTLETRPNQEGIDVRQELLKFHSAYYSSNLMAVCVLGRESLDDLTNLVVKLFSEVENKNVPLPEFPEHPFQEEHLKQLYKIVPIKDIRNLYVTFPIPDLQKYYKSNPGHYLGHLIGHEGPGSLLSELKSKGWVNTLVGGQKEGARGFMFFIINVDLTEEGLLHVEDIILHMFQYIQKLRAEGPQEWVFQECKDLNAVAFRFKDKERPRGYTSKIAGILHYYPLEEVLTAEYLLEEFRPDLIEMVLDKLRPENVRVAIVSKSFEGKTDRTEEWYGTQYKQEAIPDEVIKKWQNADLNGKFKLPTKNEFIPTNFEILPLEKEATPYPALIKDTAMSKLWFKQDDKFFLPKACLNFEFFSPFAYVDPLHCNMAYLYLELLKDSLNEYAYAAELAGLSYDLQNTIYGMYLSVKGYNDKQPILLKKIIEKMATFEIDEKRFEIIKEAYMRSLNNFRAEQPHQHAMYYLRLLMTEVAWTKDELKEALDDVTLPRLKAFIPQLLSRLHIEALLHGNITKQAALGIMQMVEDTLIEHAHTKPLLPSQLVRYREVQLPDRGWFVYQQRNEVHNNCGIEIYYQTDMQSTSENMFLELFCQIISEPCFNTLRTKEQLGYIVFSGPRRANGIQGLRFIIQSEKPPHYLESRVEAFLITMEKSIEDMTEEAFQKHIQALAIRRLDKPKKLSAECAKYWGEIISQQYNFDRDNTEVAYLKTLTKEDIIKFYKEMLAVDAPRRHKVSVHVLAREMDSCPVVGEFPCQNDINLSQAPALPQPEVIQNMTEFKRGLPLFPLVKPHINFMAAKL

[5] = target: Broad substrate specificity ATP-binding cassette transporter ABCG2 (Homo sapiens, UniProt Q9UNQ0); assay: ABCG2 efflux pump inhibitors, dose response, Ig-MXP3 cells, flow cytometry (AID 1690); type: functional
[6] = test system: HEK293; assay: optical interference in Abeta FP readout, dose response, artefact control for IDE activator project, biochemical, fluorescence polarization (AID 588442); type: functional, cell-based; conditions: Homo sapiens
[7] = target: Beta-lactamase (Salmonella choleraesuis (strain SC-B67), UniProt Q5J463)
[8] = target: T1, Insulin-degrading enzyme; assay: activators of recombinant IDE enzyme, dose response, counter-screen for IDE activator project, biochemical, fluorescence polarization (AID 588681)
[9] = target: Beta-lactamase (Pseudomonas aeruginosa, UniProt Q79MP6);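 also: biochemical dose-response test of metallo-beta-lactamase enzyme inhibition, read out by epi-absorbance; purified recombinant IMP-1 metallo-beta-lactamase with nitrocefin as substrate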
[10] = target: T2, Zinc finger protein mex-5 (Caenorhabditis elegans, UniProt Q9XUB2); assay: MEX-5/TCR-2 RNA interaction inhibitors, dose response, biochemical, C. elegans, fluorescence polarization (AID 1960)
T2 sequence (Q9XUB2 whole entry): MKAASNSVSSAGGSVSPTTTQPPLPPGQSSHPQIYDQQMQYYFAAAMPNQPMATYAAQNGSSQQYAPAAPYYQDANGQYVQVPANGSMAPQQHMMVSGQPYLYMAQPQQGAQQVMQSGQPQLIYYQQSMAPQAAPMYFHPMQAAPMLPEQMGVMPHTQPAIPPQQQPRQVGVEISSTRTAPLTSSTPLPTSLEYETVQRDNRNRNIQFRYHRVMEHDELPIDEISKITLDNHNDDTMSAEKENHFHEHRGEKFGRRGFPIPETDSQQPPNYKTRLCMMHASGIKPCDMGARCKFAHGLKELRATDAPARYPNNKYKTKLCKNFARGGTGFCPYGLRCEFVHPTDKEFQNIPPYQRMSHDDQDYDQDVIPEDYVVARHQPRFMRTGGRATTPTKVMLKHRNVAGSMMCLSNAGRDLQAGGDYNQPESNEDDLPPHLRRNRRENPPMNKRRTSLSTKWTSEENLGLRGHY

[11] = target: Arf-GAP with SH3 domain, ANK repeat and PH domain-containing protein 1 (Homo sapiens, UniProt Q9ULH1); type: functional;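 also: biochemical fluorescence polarization dose–response screen measuring inhibition of ASAP1; ASAP1 GAP domain stimulating GTP hydrolysis by truncated human ARF1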
[12] = target: T3, RNA-binding protein pos-1 (Caenorhabditis elegans, UniProt G5EF15); assay: inhibitors of POS-1/mex-3 RNA binding, dose response, biochemical, fluorescence polarization (AID 1964);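 also: purified POS-1 fused to maltose binding protein made in E. coli; potency of compounds blocking POS-1 binding to fluorescent RNA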
T3 sequence (G5EF15 whole entry): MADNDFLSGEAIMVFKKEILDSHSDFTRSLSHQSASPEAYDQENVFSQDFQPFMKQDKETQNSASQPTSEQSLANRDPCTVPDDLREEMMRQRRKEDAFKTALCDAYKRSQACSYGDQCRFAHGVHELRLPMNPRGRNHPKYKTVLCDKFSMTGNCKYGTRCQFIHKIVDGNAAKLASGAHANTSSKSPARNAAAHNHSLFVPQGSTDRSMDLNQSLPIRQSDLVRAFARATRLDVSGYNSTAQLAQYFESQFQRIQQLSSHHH

[13] = CFTR ΔF508 corrector activity in bronchial cells, dose response, human bronchial epithelial cells, plate reader, cherry-pick, two tests (AID 743267); type: functional, cell-based
[14] = Luminescence Cell-Based Dose Response HTS to Identify Activators of Luciferase Translation or Activity in H4 […] Cells. [Related pubchem assays: 1829 (Project Summary), 1814 (Primary HTS)]; type: functional
[15] = target: T4, Rac GTPase-activating protein 1 (Homo sapiens, UniProt Q9H0H5); assay: MgcRacGAP GTPase-activating activity inhibitors, confirmation, biochemical, ADP Hunter fluorescence, primary and confirmatory (AID 624330); type: functional
T4 sequence (Q9H0H5 whole entry): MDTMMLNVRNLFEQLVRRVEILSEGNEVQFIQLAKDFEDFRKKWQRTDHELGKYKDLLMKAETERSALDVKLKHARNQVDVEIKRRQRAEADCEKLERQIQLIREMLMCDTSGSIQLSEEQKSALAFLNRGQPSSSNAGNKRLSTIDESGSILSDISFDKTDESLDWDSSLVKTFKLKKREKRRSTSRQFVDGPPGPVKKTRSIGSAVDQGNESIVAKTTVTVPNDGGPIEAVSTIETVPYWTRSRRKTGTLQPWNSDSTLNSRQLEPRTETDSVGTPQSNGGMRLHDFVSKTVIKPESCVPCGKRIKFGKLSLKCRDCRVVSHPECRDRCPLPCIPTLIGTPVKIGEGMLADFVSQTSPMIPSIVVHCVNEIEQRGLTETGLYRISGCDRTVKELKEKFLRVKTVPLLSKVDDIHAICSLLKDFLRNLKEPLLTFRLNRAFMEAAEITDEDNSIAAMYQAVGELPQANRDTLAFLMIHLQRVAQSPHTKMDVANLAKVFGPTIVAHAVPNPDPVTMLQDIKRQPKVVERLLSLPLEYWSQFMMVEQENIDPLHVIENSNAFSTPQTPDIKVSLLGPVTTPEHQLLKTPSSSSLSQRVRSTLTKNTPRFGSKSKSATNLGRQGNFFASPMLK

[16] = Luminescence Cell-Based Dose Confirmation HTS to Identify Activators of 5'UTR Stem-Loop Driven Alpha-Synuclein mRNA Translation in H4 Neuroglioblastoma Cells. [Related pubchem assays: 1829 (Project Summary), 1814 (Primary HTS)]; type: functional
[17] = test system: H4; assay: Luminescence Cell-Based Dose Response HTS to Identify Activators of 5'UTR Stem-Loop Driven Prion Protein mRNA Translation in H4 Neuroglioblastoma Cells. [Related pubchem assays: 1829 (Project Summary), 1814 (Primary HTS)]; type: functional; conditions: Homo sapiens
[18] = HeLa cell cytotoxicity, dose response, cytotoxicity control for MgcRacGAP inhibitor project (AID 624300); type: functional
[19] = target: Fructose-bisphosphate aldolase (Mycobacterium tuberculosis, UniProt P9WQA3); assay: Fluorescence-based biochemical high throughput dose response assay for inhibitors of the fructose-bisphosphate aldolase (FBA) of M. tuberculosis.; type: functional
[20] = target: 5-hydroxytryptamine receptor 2A (Mus musculus, UniProt P35363); type: functional, cell-based;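 also: CHO-K1 cells with tagged receptor and beta-arrestin; agonist potency measured as compound-induced activation of the receptor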
[21] = target: Mu-type opioid receptor (Homo sapiens, UniProt P35372); type: functional, cell-based;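 also: U2OS cells with beta-arrestin recruitment to OPRM1 by beta-gal complementation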
Mu-type opioid receptor, sequence (P35372 whole entry): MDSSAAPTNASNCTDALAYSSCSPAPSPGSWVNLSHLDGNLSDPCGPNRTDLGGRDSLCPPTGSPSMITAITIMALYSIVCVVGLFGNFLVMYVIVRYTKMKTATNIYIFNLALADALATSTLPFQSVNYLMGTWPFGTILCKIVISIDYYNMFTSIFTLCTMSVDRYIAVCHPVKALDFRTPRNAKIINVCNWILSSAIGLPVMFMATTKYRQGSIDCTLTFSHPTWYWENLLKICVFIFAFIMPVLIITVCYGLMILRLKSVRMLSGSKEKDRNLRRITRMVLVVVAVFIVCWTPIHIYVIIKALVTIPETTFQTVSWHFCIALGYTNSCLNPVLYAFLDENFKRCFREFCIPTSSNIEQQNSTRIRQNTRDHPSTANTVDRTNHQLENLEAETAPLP

Fructose-bisphosphate aldolase, sequence (P9WQA3 whole entry): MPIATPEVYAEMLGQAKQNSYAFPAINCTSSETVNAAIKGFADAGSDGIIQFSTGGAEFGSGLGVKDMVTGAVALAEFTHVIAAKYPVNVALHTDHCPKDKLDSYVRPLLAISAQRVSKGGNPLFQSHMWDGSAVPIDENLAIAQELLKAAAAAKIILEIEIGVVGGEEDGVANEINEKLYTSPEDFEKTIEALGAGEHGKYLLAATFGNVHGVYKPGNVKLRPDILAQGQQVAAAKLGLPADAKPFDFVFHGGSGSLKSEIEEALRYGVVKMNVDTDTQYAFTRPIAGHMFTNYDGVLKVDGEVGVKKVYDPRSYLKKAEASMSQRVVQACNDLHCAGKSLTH
5-hydroxytryptamine receptor 2A, sequence (P35363 whole entry): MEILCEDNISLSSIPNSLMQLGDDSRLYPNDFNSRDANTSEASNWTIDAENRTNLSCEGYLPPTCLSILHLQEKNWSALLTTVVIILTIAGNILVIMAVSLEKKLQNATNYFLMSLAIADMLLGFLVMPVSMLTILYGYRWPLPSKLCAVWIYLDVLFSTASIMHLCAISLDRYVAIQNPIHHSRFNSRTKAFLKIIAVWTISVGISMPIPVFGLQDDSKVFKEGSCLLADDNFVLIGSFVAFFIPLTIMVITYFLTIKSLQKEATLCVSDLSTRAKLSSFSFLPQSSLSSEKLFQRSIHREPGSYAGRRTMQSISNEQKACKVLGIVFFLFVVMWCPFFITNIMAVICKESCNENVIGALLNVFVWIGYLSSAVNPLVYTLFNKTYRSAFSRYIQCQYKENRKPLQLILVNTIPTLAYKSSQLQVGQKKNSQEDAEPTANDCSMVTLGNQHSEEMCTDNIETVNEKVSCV
Broad substrate specificity ATP-binding cassette transporter ABCG2, sequence (Q9UNQ0 whole entry): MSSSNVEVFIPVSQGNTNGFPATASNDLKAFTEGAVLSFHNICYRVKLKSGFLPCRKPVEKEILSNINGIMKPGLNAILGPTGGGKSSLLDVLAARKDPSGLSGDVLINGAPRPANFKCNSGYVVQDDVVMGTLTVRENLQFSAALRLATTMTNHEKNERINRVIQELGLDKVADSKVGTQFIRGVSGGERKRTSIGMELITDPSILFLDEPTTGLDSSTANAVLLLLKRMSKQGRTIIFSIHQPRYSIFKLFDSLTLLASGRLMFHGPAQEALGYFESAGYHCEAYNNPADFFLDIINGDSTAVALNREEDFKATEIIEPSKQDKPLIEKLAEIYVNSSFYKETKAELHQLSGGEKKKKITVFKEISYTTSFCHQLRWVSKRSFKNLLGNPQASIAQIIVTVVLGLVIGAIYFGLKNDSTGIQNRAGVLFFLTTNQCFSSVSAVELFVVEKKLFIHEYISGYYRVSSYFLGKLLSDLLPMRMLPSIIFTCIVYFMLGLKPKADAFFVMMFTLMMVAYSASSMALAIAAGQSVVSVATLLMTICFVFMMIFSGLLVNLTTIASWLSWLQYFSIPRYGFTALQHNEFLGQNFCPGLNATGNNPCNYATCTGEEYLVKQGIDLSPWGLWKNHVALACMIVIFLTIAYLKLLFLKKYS
Beta-lactamase (Salmonella choleraesuis (strain SC-B67), UniProt Q5J463), sequence (Q5J463 whole entry): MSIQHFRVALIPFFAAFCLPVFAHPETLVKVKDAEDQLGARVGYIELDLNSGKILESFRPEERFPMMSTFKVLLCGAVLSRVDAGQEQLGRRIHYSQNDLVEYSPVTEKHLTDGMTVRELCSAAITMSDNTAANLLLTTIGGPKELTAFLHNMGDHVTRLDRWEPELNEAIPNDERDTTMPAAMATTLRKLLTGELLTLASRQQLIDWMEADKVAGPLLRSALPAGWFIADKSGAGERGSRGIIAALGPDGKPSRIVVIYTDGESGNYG
Arf-GAP with SH3 domain, ANK repeat and PH domain-containing protein 1, sequence (Q9ULH1 whole entry, the tested form may be a part): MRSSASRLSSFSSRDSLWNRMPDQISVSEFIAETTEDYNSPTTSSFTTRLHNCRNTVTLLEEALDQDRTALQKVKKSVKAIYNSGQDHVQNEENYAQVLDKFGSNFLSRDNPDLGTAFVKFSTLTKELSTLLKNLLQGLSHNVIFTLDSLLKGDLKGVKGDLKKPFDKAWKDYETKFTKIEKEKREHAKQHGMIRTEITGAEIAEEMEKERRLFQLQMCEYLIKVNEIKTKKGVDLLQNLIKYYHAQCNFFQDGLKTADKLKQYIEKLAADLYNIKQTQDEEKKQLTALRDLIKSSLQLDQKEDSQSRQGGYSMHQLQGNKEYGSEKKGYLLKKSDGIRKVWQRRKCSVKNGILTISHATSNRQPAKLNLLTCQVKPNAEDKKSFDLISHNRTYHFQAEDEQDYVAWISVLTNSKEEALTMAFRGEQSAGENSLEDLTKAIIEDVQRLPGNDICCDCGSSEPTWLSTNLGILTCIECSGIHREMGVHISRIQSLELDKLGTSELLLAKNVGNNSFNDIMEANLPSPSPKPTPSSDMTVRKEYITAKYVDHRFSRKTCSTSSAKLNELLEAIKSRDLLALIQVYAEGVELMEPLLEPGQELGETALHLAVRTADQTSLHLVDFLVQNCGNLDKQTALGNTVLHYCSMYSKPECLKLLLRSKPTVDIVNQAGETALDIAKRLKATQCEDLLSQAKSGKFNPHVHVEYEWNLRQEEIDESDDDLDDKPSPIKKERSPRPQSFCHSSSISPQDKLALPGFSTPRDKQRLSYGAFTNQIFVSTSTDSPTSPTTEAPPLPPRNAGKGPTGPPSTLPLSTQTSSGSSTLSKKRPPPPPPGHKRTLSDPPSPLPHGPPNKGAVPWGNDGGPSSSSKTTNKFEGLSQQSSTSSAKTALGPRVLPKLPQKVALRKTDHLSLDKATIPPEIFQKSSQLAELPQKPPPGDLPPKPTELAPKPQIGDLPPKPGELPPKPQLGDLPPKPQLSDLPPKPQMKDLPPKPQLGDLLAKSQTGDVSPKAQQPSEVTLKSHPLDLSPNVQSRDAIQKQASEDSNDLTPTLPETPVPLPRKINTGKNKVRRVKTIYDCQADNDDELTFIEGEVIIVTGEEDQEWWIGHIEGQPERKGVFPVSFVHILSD
Beta-lactamase (Pseudomonas aeruginosa, UniProt Q79MP6), sequence (Q79MP6 whole entry): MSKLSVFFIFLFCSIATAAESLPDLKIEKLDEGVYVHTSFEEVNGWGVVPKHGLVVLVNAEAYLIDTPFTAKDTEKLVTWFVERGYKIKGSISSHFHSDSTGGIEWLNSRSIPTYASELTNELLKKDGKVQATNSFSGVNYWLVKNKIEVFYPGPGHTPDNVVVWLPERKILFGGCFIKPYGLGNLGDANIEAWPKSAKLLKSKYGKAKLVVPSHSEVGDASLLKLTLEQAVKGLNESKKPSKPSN

SMILES: C[C@H](CO)N1C[C@H](C)[C@H](CN(C)C(=O)Nc2cccc3ccccc23)OCCCC[C@H](C)Oc2ccc(NC(=O)C3CCCCC3)cc2C1=O
- AC50 [1]: 0.747 µM (active)
- AC50 [2]: 43.9 µM (active)

SMILES: CCCCN(C)C1=CC2=CC(=C(C#N)C#N)CCC2CC1 (stereo unspecified)
- IC50 [3]: > 89.2 µM (inactive)
- EC50 [4]: > 54.7 µM (inactive)
- EC50 [5]: 4.42 µM (active)
- EC50 [6]: 1.55 µM (active)
- IC50 [7]: 1.47 µM (active)
- EC50 [8]: > 54.7 µM (inactive)
- IC50 [9]: 5.07 µM (active)

SMILES: Cc1cc(N/C=C2/C(=O)N(c3ccc4c(c3)OCO4)C(=O)c3ccccc32)ccn1
- EC50 [10]: 188 µM (inconclusive)
- IC50 [11]: 22.1 µM (inactive)
- EC50 [12]: 27.5 µM (active)

SMILES: COc1ccccc1NS(=O)(=O)c1cc(NN=C(C(C)=O)C(=O)Nc2ccc(Cl)cc2)ccc1C
- AC50 [13]: 36.6 µM (active)

SMILES: COc1ccc(/C=N/Nc2ncnc3sc4c(c23)CCCC4)cc1O
- EC50 [14]: 6.72 µM (active)
- IC50 [15]: 56.1 µM (active)
- EC50 [16]: 13.4 µM (active)
- EC50 [17]: 8.38 µM (active)
- CC50 [18]: 70.4 µM (active)

SMILES: CCN(CC)CCCNC(=O)CCC(=O)Nc1ccc2nc(N3CCC(C)CC3)cc(C)c2c1
- IC50 [19]: > 0.37 µM (active)

SMILES: O=C(c1ccco1)N1CCN(CC2CC3C=CC2C3)CC1 (stereo unspecified)
- EC50 [20]: 2.96 µM (active)
- EC50 [21]: 92.4 µM (inactive)
